This note sets out measurements from US11963960B2 (Flash Therapeutics, LLC, priority 2020, dated 2024).

For the test, the target named is N-terminally GST-tagged HCK (75-526) (Homo sapiens (Human), UniProt P08631). The test can be described thus: HCK Kinase Assay (ProFluor Src-Family Kinase Assay). Type of test: biochemical. The procedure:
The procedure of ProFluor Src-Family Kinase Assay (Promega, Cat. No. V1271) was then followed. To the reaction was added 5 μL Protease solution and the mixture was incubated for 60 minutes at room temperature (22-25° C.), followed by 5 μL Stabilizer solution. The fluorescence signal was read on an Envision multilabel plate reader (Perkin Elmer). The R110 was then read at an excitation wavelength of 485 nm and an emission wavelength of 530 nm. The AMC signal was read at an excitation wavelength of 355 nm and an emission wavelength of 460 nm.

Where [1] appears, read: HCK inhibitory activity, 50 μM ATP, read-out: HCK Activity.

Molecules are shown by their SMILES. Read-outs that look alike come from different tables or passages of the source.

Sequence of N-terminally GST-tagged HCK (75-526) (P08631 75-526): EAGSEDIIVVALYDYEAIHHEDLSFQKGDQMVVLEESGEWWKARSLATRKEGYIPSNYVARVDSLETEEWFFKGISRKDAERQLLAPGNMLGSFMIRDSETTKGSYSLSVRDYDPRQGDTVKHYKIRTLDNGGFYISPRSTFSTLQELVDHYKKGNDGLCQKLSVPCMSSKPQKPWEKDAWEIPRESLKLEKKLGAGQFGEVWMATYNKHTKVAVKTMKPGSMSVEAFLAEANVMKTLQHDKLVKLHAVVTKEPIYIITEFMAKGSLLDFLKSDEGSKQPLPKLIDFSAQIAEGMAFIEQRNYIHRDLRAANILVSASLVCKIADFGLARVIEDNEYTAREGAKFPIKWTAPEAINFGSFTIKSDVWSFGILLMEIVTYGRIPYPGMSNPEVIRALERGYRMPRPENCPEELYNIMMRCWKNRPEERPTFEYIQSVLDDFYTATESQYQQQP

As for `Nc1ncnc2c1c(-c1ccc(Oc3ccccc3)cc1)cn2[C@H]1CC[C@H](N2CCC3(CCNC3)C2)CC1` (relative stereo) [Example 136, 7-((trans)-4-(2,7-diazaspiro[4.4]nonan-2-yl)cyclohexyl)-5-(4-phenoxyphenyl)-7H-pyrrolo[2,3-d]pyrimidin-4-amine], the IC50 under setting [1] is 50 to 250 nM.
For the compound `Nc1ncnc2c1c(-c1ccc(Oc3ccccc3)cc1)cn2[C@H]1CC[C@@H](N2CCC3(CCNC3)C2)CC1` (relative stereo) [Example 137, 7-((cis)-4-(2,7-diazaspiro[4.4]nonan-2-yl)cyclohexyl)-5-(4-phenoxyphenyl)-7H-pyrrolo[2,3-d]pyrimidin-4-amine], the IC50 under setting [1] is 50 to 250 nM.
`[2H]C([2H])([2H])N1CCN([C@H]2CC[C@H](n3cc(-c4ccc(Oc5ccccc5)cc4)c4c(N)ncnc43)CC2)CC1` (single isomer, unassigned) [Example 3, 7-((trans)-4-(4-(trideuteriomethyl)piperazin-1-yl)cyclohexyl)-5-(4-phenoxyphenyl)-7H-pyrrolo[2,3-d]pyrimidin-4-amine] returned an IC50 of under 50 nM.
With `[2H]C([2H])([2H])N1CCN([C@H]2CC[C@@H](n3cc(-c4ccc(Oc5ccccc5)cc4)c4c(N)ncnc43)CC2)CC1` (single isomer, unassigned) [Example 4, 7-((cis)-4-(4-(trideuteriomethyl)piperazin-1-yl)cyclohexyl)-5-(4-phenoxyphenyl)-7H-pyrrolo[2,3-d]pyrimidin-4-amine], the IC50 was in the range of 250 to 10000 nM.
As for `[2H]C([2H])([2H])N1C([2H])([2H])C([2H])([2H])N([C@H]2CC[C@H](n3cc(-c4ccc(Oc5ccccc5)cc4)c4c(N)ncnc43)CC2)C([2H])([2H])C1([2H])[2H]` (single isomer, unassigned) [Example 5, 7-((trans)-4-(4-d3-methyl-d8-piperazin-1-yl)cyclohexyl)-5-(4-phenoxyphenyl)-7H-pyrrolo[2,3-d]pyrimidin-4-amine], the IC50 fell in the range of 250 to 10000 nM.
Same read-out and setting: in the case of `[2H]C([2H])([2H])N1C([2H])([2H])C([2H])([2H])N([C@H]2CC[C@@H](n3cc(-c4ccc(Oc5ccccc5)cc4)c4c(N)ncnc43)CC2)C([2H])([2H])C1([2H])[2H]` (single isomer, unassigned) [Example 6, 7-((cis)-4-(4-d3-methyl-d8-piperazin-1-yl)cyclohexyl)-5-(4-phenoxyphenyl)-7H-pyrrolo[2,3-d]pyrimidin-4-amine] it was under 50 nM.
The compound `[2H]c1c([2H])c([2H])c(Oc2ccc(-c3cn([C@H]4CC[C@H](N5CCN(C)CC5)CC4)c4ncnc(N)c34)cc2)c([2H])c1[2H]` (single isomer, unassigned) [Example 104, 7-((trans)-4-(4-methylpiperazin-1-yl)cyclohexyl)-5-(4-pentadeuteriophenoxyphenyl)-7H-pyrrolo[2,3-d]pyrimidin-4-amine] yielded an IC50 of under 50 nM.
Still for that read-out and setting: in the case of `CN1CCN([C@H]2CC[C@@H](n3cc(-c4ccc(Oc5ccccc5)cc4)c4c(N)ncnc43)CC2)CC1` [Example 2, 7-((cis)-4-(4-methylpiperazin-1-yl)cyclohexyl)-5-(4-phenoxyphenyl)-7H-pyrrolo[2,3-d]pyrimidin-4-amine] it was 50 to 250 nM.
As for `C[N+]1(C)CCN([C@H]2CC[C@H](n3nc(-c4ccc(Oc5ccccc5)cc4F)c4c(N)ncnc43)CC2)CC1` [Example 7, 4-((trans)-4-(4-amino-3-(2-fluoro-4-phenoxyphenyl)-1H-pyrazolo[3,4-d]pyrimidin-1-yl)cyclohexyl)-1,1-dimethylpiperazin-1-ium], under setting [1], the IC50 was under 50 nM.
The same measure, in the same setting: as for `C[N+]1(C)CCN([C@H]2CC[C@@H](n3nc(-c4ccc(Oc5ccccc5)cc4F)c4c(N)ncnc43)CC2)CC1` [Example 8, 4-((cis)-4-(4-amino-3-(2-fluoro-4-phenoxyphenyl)-1H-pyrazolo[3,4-d]pyrimidin-1-yl)cyclohexyl)-1,1-dimethylpiperazin-1-ium], the figure is 50 to 250 nM.
Consider `CCN1CCN([C@H]2CC[C@H](n3nc(-c4ccc(Oc5ccccc5)cc4F)c4c(N)ncnc43)CC2)CC1` [Example 9, 1-((trans)-4-(4-ethylpiperazin-1-yl)cyclohexyl)-3-(2-fluoro-4-phenoxyphenyl)-1H-pyrazolo[3,4-d]pyrimidin-4-amine], for which the IC50 under setting [1] is under 50 nM.
Consider `Nc1ncnc2c1c(-c1ccc(Oc3ccccc3)cc1F)nn2[C@H]1CC[C@H](N2CCN(CCO)CC2)CC1` [Example 10, 2-(4-((trans)-4-(4-amino-3-(2-fluoro-4-phenoxyphenyl)-1H-pyrazolo[3,4-d]pyrimidin-1-yl)cyclohexyl)piperazin-1-yl)ethanol], for which the IC50 under setting [1] was under 50 nM.
For `Nc1ncnc2c1c(-c1ccc(Oc3ccccc3)cc1F)nn2[C@H]1CC[C@@H](N2CCN(CCO)CC2)CC1` [Example 11, 2-(4-((cis)-4-(4-amino-3-(2-fluoro-4-phenoxyphenyl)-1H-pyrazolo[3,4-d]pyrimidin-1-yl)cyclohexyl)piperazin-1-yl)ethanol], the IC50 under setting [1] was 50 to 250 nM.
As to `C[C@@H]1CN([C@H]2CC[C@H](n3cc(-c4ccc(Oc5ccccc5)cc4)c4c(N)ncnc43)CC2)CCN1` [Example 12, 7-((trans)-4-((R)-3-methylpiperazin-1-yl)cyclohexyl)-5-(4-phenoxyphenyl)-7H-pyrrolo[2,3-d]pyrimidin-4-amine], under setting [1], the IC50 lay within 250 to 10000 nM.
On the same count and under the same terms, as for `C[C@@H]1CN([C@H]2CC[C@@H](n3cc(-c4ccc(Oc5ccccc5)cc4)c4c(N)ncnc43)CC2)CCN1` [Example 13, 7-((cis)-4-((R)-3-methylpiperazin-1-yl)cyclohexyl)-5-(4-phenoxyphenyl)-7H-pyrrolo[2,3-d]pyrimidin-4-amine], the figure is under 50 nM; as for `C[C@@H]1CN([C@H]2CC[C@H](n3nc(-c4ccc(Oc5ccccc5)cc4)c4c(N)ncnc43)CC2)CCN1` [Example 14, 1-((trans)-4-((R)-3-methylpiperazin-1-yl)cyclohexyl)-3-(4-phenoxyphenyl)-1H-pyrazolo[3,4-d]pyrimidin-4-amine], under 50 nM; as for `C[C@@H]1CN([C@H]2CC[C@H](n3cc(-c4ccc(Oc5ccccc5)cc4F)c4c(N)ncnc43)CC2)CCN1` [Example 15, 5-(2-fluoro-4-phenoxyphenyl)-7-((trans)-4-((R)-3-methylpiperazin-1-yl)cyclohexyl)-7H-pyrrolo[2,3-d]pyrimidin-4-amine], under 50 nM.
On the same count and under the same terms, in the case of `C[C@@H]1CN([C@H]2CC[C@@H](n3cc(-c4ccc(Oc5ccccc5)cc4F)c4c(N)ncnc43)CC2)CCN1` [Example 16, 5-(2-fluoro-4-phenoxyphenyl)-7-((cis)-4-((R)-3-methylpiperazin-1-yl)cyclohexyl)-7H-pyrrolo[2,3-d]pyrimidin-4-amine] it was 50 to 250 nM.
Take `C[C@@H]1CN([C@H]2CC[C@H](n3nc(-c4ccc(Oc5ccccc5)cc4F)c4c(N)ncnc43)CC2)CCN1` [Example 17, 3-(2-fluoro-4-phenoxyphenyl)-1-((trans)-4-((R)-3-methylpiperazin-1-yl)cyclohexyl)-1H-pyrazolo[3,4-d]pyrimidin-4-amine]: the IC50 is 16.5 nM (50 μM ATP, read-out: HCK IC50) and under 50 nM under setting [1].
For `C[C@@H]1CN([C@H]2CC[C@@H](n3nc(-c4ccc(Oc5ccccc5)cc4F)c4c(N)ncnc43)CC2)CCN1` [Example 18, 3-(2-fluoro-4-phenoxyphenyl)-1-((cis)-4-((R)-3-methylpiperazin-1-yl)cyclohexyl)-1H-pyrazolo[3,4-d]pyrimidin-4-amine], under setting [1], the IC50 lay in the range of 250 to 10000 nM.
For the compound `C[C@H]1CN([C@H]2CC[C@@H](n3cc(-c4ccc(Oc5ccccc5)cc4)c4c(N)ncnc43)CC2)CCN1` [Example 20, 7-((cis)-4-((S)-3-methylpiperazin-1-yl)cyclohexyl)-5-(4-phenoxyphenyl)-7H-pyrrolo [2,3-d]pyrimidin-4-amine], the IC50 under setting [1] was under 50 nM.
Take `CC1CN([C@H]2CC[C@H](n3cc(-c4ccc(Oc5ccccc5)cc4)c4c(N)ncnc43)CC2)CCN1C` (stereo partly drawn) [Example 22, 7-((trans)-4-(3,4-dimethylpiperazin-1-yl)cyclohexyl)-5-(4-phenoxyphenyl)-7H-pyrrolo[2,3-d]pyrimidin-4-amine]: the IC50 under setting [1] is under 50 nM.
Regarding `C[C@H]1CN([C@H]2CC[C@H](n3cc(-c4ccc(Oc5ccccc5)cc4)c4c(N)ncnc43)CC2)CCN1C` [Example 23, 7-((trans)-4-((S)-3,4-dimethylpiperazin-1-yl)cyclohexyl)-5-(4-phenoxyphenyl)-7H-pyrrolo[2,3-d]pyrimidin-4-amine], the IC50 under setting [1] is under 50 nM.
As for `C[C@@H]1CN([C@H]2CC[C@@H](n3cc(-c4ccc(Oc5ccccc5)cc4)c4c(N)ncnc43)CC2)CCN1C` [Example 24, 7-((cis)-4-((R)-3,4-dimethylpiperazin-1-yl)cyclohexyl)-5-(4-phenoxyphenyl)-7H-pyrrolo[2,3-d]pyrimidin-4-amine], the IC50 under setting [1] was under 50 nM.
Consider `C[C@@H]1CN([C@H]2CC[C@H](n3cc(-c4ccc(Oc5ccccc5)cc4)c4c(N)ncnc43)CC2)C[C@H](C)N1` [Example 25, 7-((trans)-4-((3S,5R)-3,5-dimethylpiperazin-1-yl)cyclohexyl)-5-(4-phenoxyphenyl)-7H-pyrrolo[2,3-d]pyrimidin-4-amine], for which the IC50 under setting [1] was 50 to 250 nM.
`C[C@@H]1CN([C@H]2CC[C@@H](n3cc(-c4ccc(Oc5ccccc5)cc4)c4c(N)ncnc43)CC2)C[C@H](C)N1` [Example 26, 7-((cis)-4-((3S,5R)-3,5-dimethylpiperazin-1-yl)cyclohexyl)-5-(4-phenoxyphenyl)-7H-pyrrolo[2,3-d]pyrimidin-4-amine]: under setting [1], the IC50 was under 50 nM.
`CN1CCN([C@H]2CC[C@H](n3cc(-c4ccc(Oc5ccccc5)cc4)c4c(N)ncnc43)CC2)CC1(C)C` [Example 27, 5-(4-phenoxyphenyl)-7-((trans)-4-(3,3,4-trimethylpiperazin-1-yl)cyclohexyl)-7H-pyrrolo[2,3-d] pyrimidin-4-amine]: the IC50 under setting [1] is under 50 nM.
